Results taken from patent US5670498A, “8-substituted styryl xanthine derivatives” (Kyowa Hakko Kogyo Co., Ltd., priority 1992, dated 1997).
Read-outs that look alike come from different tables or passages of the source.

Tests used:
adenosine A2 receptor [1] = biological target: T1, adenosine A2 receptor (Rattus norvegicus, UniProt P30543); assay: Adenosine A2 Receptor Binding Test (3H-NECA + CPA, rat corpus striatum); details: for inhibition at 1 µM: 10^-6 M
T1 construct: from tissue; host or cells: rat corpus striatum (washed membrane suspension)
T1 sequence (P30543 whole entry): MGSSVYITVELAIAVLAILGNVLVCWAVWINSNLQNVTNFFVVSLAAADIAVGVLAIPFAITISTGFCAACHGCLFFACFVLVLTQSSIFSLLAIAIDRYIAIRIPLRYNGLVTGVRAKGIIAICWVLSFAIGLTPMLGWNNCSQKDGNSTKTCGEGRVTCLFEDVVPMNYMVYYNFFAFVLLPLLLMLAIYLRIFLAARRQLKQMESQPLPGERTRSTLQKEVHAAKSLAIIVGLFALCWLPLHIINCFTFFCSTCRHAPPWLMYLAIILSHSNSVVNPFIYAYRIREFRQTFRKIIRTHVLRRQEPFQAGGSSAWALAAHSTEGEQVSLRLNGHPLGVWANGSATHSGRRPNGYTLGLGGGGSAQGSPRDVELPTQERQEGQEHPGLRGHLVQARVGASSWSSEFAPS
Method: Corpus striatum of a rat was suspended in ice-cooled 50 mM Tris hydroxymethyl aminomethane hydrochloride (Tris HCl) buffer (pH 7.7) by using Polytron homogenizer (manufactured by […] Co.). The suspension was centrifuged (50,000×g, 10 minutes), and the precipitate was suspended again in the same amount of 50 mM Tris HCl buffer. The suspension was centrifuged under the same conditions, and the final precipitate was suspended once again in 50 mM Tris HCl buffer containing 10 mM magnesium chloride and 0.02 unit/mg tissue of adenosine deaminase (manufactured by Sigma Co.) to give a tissue concentration of 5 mg (wet weight)/ml. […] The resulting mixture was allowed to stand at 25° C. for 120 minutes and then rapidly filtered by suction through a glass fiber filter (GF/C, manufactured by Whatman Co.). […] The radioactivity on the filter was determined with a liquid scintillation counter (manufactured by Packard instrument Co.). […] The Ki values shown in the table were calculated by the following equation: [formula]

[2] = tested on: Haloperidol-Induced Catalepsy; assay: Effect on Haloperidol-Induced Catalepsy; type: in vivo, male ddY mice; details: 10 mg/kg po; for Total Score (catalepsy): sum of five mice, 25 points at the full, control 25; for inhibition in vivo at 10 mg/kg: Mus musculus, decrease in total score based on control group, read-out: Remission Rate
Method: Effect on Haloperidol-Induced Catalepsy Parkinson's disease is a clinical syndrome caused by degeneration of nigrostriatal dopaminergic neurons. […] The experiment was performed by using several groups of 5-weeks-old male ddY mice (weighing 22 to 24 g, Japan SLC), each group consisting of 5 mice. Haloperidol (Janssen Pharmaceutica) suspended in 0.3% CMC was intraperitoneally administered to each mouse at a dose of 1.0 mg/kg. Test compounds were suspended in injectable distilled water (Otsuka Pharmaceutical Co., Ltd.) containing Tween 80 [polyoxyethylene (20) sorbitan monooleate]. L-DOPA (Kyowa Hakko Kogyo Co., Ltd.) and benserazide hydrochloride (Kyowa Hakko Kogyo Co., Ltd.) were suspended in 0.3% CMC. One hour after the haloperidol administration, the test compound suspensions and the control suspension [injectable distilled water (Otsuka Pharmaceutical Co., Ltd.) containing Tween 80] containing no test compound were orally administered to separate groups of the mice (0.1 ml per 10 g of body weight). One hour after the administration of the test compound, the forelimbs of each mouse and subsequently the hindlimbs of the same mouse were placed on a 4.5 cm-high, 1.0 cm-wide bar and catalepsy was estimated. […] The catalepsy score and the standard of judgment are shown below. […] The effect of the compounds was evaluated by the total of the catalepsy scores of five mice in each group (25 points at the full).

adenosine A2 receptor [3] = biological target: T1, adenosine A2 receptor; assay: Adenosine A2 Receptor Binding Test (3H-CGS 21680, rat corpus striatum); details: [3H]CGS 21680, read-out: A2 Receptor Inhibition Rate; for inhibition at 1 µM: 10^-6 M; for inhibition at 0.1 µM: 10^-7 M
Method: Adenosine Receptor Antagonistic Activity (Adenosine A2 Receptor Binding Test)
Corpus striatum of a rat was suspended in ice-cooled 50 mM Tris hydroxymethyl aminomethane hydrochloride (Tris HCl) buffer (pH 7.7) by using Polytron homogenizer (manufactured by Kinematicas Co.). The suspension was centrifuged (50,000×g, 10 minutes), and the precipitate was suspended again in the same amount of 50 mM Tris HCl buffer. The suspension was centrifuged under the same conditions, and the final precipitate was suspended once again in 50 mM Tris HCl buffer containing 10 mM magnesium chloride and 0.02 unit/mg tissue of adenosine deaminase (manufactured by Sigma Co.) to give a tissue concentration of 5 mg (wet weight)/ml.
To 1 ml of the tissue suspension thus prepared were added 50 μl of a mixture of N-ethylcarboxamidoadenosine labeled with tritium (^3 H-NECA: 26 Ci/mmol, manufactured by Amersham Co.) (final concentration: 3.8 nM) and cyclopentyladenosine (CPA, manufactured by Sigma Co.) (final concentration: 50 nM), and 50 μl of a test compound. The resulting mixture was allowed to stand at 25° C. for 120 minutes and then rapidly filtered by suction through a glass fiber filter (GF/C, manufactured by Whatman Co.). The filter was immediately washed three times with 5 ml each of ice-cooled 50 mM Tris HCl buffer, and transferred to a vial, and a scintillator (EX-H by Wako Pure Chemical Industries, Ltd.) was added thereto. The radioactivity on the filter was determined with a liquid scintillation counter (manufactured by Packard instrument Co.).
The similar procedure as above was repeated to determine the radioactivity bound to the A2 receptors using 50 μl of CGS 21680 labeled with tritium {^3 H-2-[p-(2-carboxyethyl)phenethylamino]-5'-(N-ethylcarboxamide)adenosine: 40 Ci/mmol, manufactured by New England Nuclear Co. [J. Pharmacol. Exp. Ther., 251, 888 (1989)]} (final concentration: 4.0 nM) in place of 50 μl of the mixture of N-ethylcarboxamidoadenosine labeled with tritium (^3 H-NECA: 26 Ci/mmol, manufactured by Amersham Co.) (final concentration: 3.8 nM) and cyclopentyladenosine (CPA, manufactured by Sigma Co.) (final concentration: 50 nM).
The inhibition rate of the test compound against the binding of A2 receptors (^3 H-CGS 21680 binding) was calculated by the following equation: [formula]

[4] = Acute Toxicity Test (minimum lethal dose, po); type: in vivo; details: mice, 7 days after administration
Method: Test compounds were orally administered to groups of dd-strain male mice weighing 20±1 g, each group consisting of three mice (po; 300 mg/kg). Seven days after the administration, minimum lethal dose (MLD) of each compound was determined by observing the mortality.
Therefore, these compounds can be safely used in a wide range of doses.

[5] = 10^-4 M, 3H-NECA, read-out: A2 Receptor Inhibition Rate
[6] = 10^-5 M, 3H-NECA, read-out: A2 Receptor Inhibition Rate
[7] = read-out: A2 Receptor Inhibition Rate
[8] = 3H-NECA, read-out: A2 Receptor Inhibition Rate

Row | Compound | inhibition at 100 µM (adenosine A2 receptor [1]; [5]) | inhibition at 10 µM (adenosine A2 receptor [1]; [6]) | Total Score (catalepsy) [2] | inhibition in vivo at 10 mg/kg [2] | inhibition at 1 µM (adenosine A2 receptor [3]) | inhibition at 0.1 µM (adenosine A2 receptor [3]) | further results
1 | CCCn1c(=O)c2c(nc(/C=C/c3cc(OC)c(OC)c(OC)c3S(=O)(=O)O)n2C)n(CCC)c1=O [Compound 11, (E)-β-(7-Methyl-1,3-dipropylxanthin-8-yl)-3,4,5-trimethoxystyrene-2-sulfonic acid] | 93% | 93% | 19 | 24% |  |  | 
2 | CCCn1c(=O)c2c(nc(/C=C/c3cc(OC)c(OC)cc3S(=O)(=O)Nc3ccccc3)n2C)n(CCC)c1=O [Compound 10, (E)-N-Phenyl-4,5-dimethoxy-β-(7-methyl-1,3-dipropylxanthin-8-yl)styrene-2-sulfonamide] |  |  | 17 | 32% |  |  | 
3 | CCCn1c(=O)c2c(nc(/C=C/c3ccc(C(=O)O)cc3OC)n2C)n(CCC)c1=O [Compound 23, (E)-2-Methoxy-β-(7-methyl-1,3-dipropylxanthin-8-yl)styrene-4-carboxylic acid] |  |  |  |  | 95% | 70% | 
4 | CCn1c(=O)c2c(nc(/C=C/c3ccc(C(=O)O)cc3OC)n2C)n(CC)c1=O [Compound 22, (E)-β-(1,3-Diethyl-7-methylxanthin-8-yl)-2-methoxystyrene-4-carboxylicacid] |  |  |  |  | 92% | 60% | 
5 | CCCn1c(=O)c2c(nc(/C=C/c3cc(OC)c(OC)cc3S(=O)(=O)O)n2C)n(CCC)c1=O [Compound 1, (E)-4,5-Dimethoxy-β-(7-methyl-1,3-dipropylxanthin-8-yl)styrene-2-sulfonic acid] |  |  |  |  |  |  | MLD (minimum lethal dose) [4]: > 300 mg/kg; Ki (adenosine A2 receptor [1]; 3H-NECA): 670 nM; inhibition at 10 µM (adenosine A2 receptor [1]; [7]): 80%; inhibition at 100 µM (adenosine A2 receptor [1]; [7]): 95%
6 | CCCn1c(=O)c2c(nc(/C=C/c3cc(C)c(C)cc3S(=O)(=O)O)n2C)n(CCC)c1=O [Compound 15, (E) -4,5-Dimethyl-β-(7-methyl-1,3-dipropylxanthin-8-yl)styrene-2-sulfonicacid] |  |  |  |  |  |  | MLD (minimum lethal dose) [4]: > 300 mg/kg
7 | CCCN(CCC)S(=O)(=O)c1cc(OC)c(OC)cc1/C=C/c1nc2c(c(=O)n(CCC)c(=O)n2CCC)n1C [Compound 3, (E)-N,N-Dipropyl-4,5-dimethoxy-β-(7-methyl-1,3-dipropylxanthin-8-yl)styrene-2-sulfonamide] | 91% | 92% | 20 | 20% |  |  | 
8 | CCCn1c(=O)c2c(nc(/C=C\c3ccc(C(=O)OC)cc3)n2C)n(CCC)c1=O [Compound 8, (Z)-β-(7-methyl-1,3-dipropylxanthin-8-yl)styrene-4-carboxylic acid methyl ester] | 101% | 92% |  |  |  |  | MLD (minimum lethal dose) [4]: > 300 mg/kg
9 | CCCn1c(=O)c2c(nc(/C=C/c3ccc(S(=O)(=O)O)cc3)n2C)n(CCC)c1=O [Compound 31, (E)-β-(7-Methyl-1,3-dipropylxanthin-8-yl)styrene-4-sulfonic acid] |  |  |  |  | 89% | 56% | 
10 | CCCn1c(=O)c2c(nc(/C=C/c3ccc(C(=O)OC)cc3)n2C)n(CCC)c1=O [Compound 7, (E)-β-(7-Methyl-1,3-dipropylxanthin-8-yl)styrene-4-carboxylic acid methyl ester] | 92% | 77% | 11 | 56% |  |  | 
11 | CCCn1c(=O)c2c(nc(/C=C/c3cc(OC)c(OC)cc3S(=O)(=O)N(C)CCN(C)C)n2C)n(CCC)c1=O [Compound 6, (E)-N-[2-(Dimethylamino)ethyl]-N-methyl-4,5-dimethoxy-β-(7-methyl-1,3-dipropylxanthin-8-yl)styrene-2-sulfonamide] |  |  | 19 | 24% |  |  | 
12 | CCCn1c(=O)c2c(nc(/C=C/c3cc(OC)c(OC)c(OC)c3S(=O)(=O)N(C)CCN(C)C)n2C)n(CCC)c1=O [Compound 13, (E)-N-[2-(Dimethylamino)ethyl]-N-methyl-β-(7-methyl-1,3-dipropylxanthin-8-yl)-3,4,5-trimethoxystyrene-2-sulfonamide] | 89% | 69% |  |  |  |  | 
13 | CCCn1c(=O)c2c(nc(/C=C/c3cc(OC)c(OC)cc3S(=O)(=O)N(CC)CC)n2C)n(CCC)c1=O [Compound 2, (E)-N,N-Diethyl-4,5-dimethoxy-β-(7-methyl-1,3-dipropylxanthin-8-yl)styrene-2-sulfonamide] | 112% | 97% |  |  |  |  | 
14 | CCn1c(=O)c2c(nc(/C=C/c3ccc(F)c(C(C)=O)c3)n2C)n(CC)c1=O [Compound 28, (E)-8-(3-Acetyl-4-fluorostyryl)-1,3-diethyl-7-methylxanthine] |  |  |  |  | 86% | 76% | 
15 | CCCn1c(=O)c2c(nc(/C=C/c3ccc(OC)c(C(C)=O)c3)n2C)n(CCC)c1=O [Compound 26, (E)-8-(3-Acetyl-4-methoxystyryl)-7-methyl-1,3-dipropylxanthine] |  |  |  |  | 93% | 66% | 
16 | CCCn1c(=O)c2c(nc(/C=C/c3ccc(C(=O)OC)cc3OC)n2C)n(CCC)c1=O [Compound 21, (E)-2-Methoxy-β-(7-methyl-1,3-dipropylxanthin-8-yl)styrene-4-carboxylic acid methyl ester] |  |  |  |  | 94% | 80% | 
17 | CCn1c(=O)c2c(nc(/C=C/c3ccc(C(C)=O)c(OC)c3)n2C)n(CC)c1=O [Compound 30, (E)-8-(4-Acetyl-3-methoxystyryl)-1,3-diethyl-7-methylxanthine] |  |  |  |  | 95% | 83% | 
18 | CCCn1c(=O)c2c(nc(/C=C/c3cc(OC)c(OC)cc3S(=O)(=O)N3CCCCC3)n2C)n(CCC)c1=O [Compound 4, (E)-4,5-Dimethoxy-β-(7-methyl-1,3-dipropylxanthin-8-yl)-2-piperidinosulfonylstyrene] | 60% | 74% | 11 | 56% |  |  | 
19 | CCCn1c(=O)c2c(nc(/C=C/c3cc(OC)c(OC)c(OC)c3S(N)(=O)=O)n2C)n(CCC)c1=O [Compound 12, (E)-β-(7-Methyl-1,3-dipropylxanthin-8-yl)-3,4,5-trimethoxystyrene-2-sulfonamide] | 76% | 68% | 15 | 40% |  |  | 
20 | CCCn1c(=O)c2c(nc(/C=C\c3ccc(C(=O)O)cc3)n2C)n(CCC)c1=O [Compound 18, (Z)-β-(7-Methyl-1,3-dipropylxanthin-8-yl)styrene-4-carboxylic acid] |  |  |  |  |  |  | MLD (minimum lethal dose) [4]: > 300 mg/kg; inhibition at 1 µM (adenosine A2 receptor [1]; [8]): 72%
21 | CCCn1c(=O)c2c(nc(/C=C/c3ccc(C(=O)O)cc3)n2C)n(CCC)c1=O [Compound 19, (E)-β-(7-Methyl-1,3-dipropylxanthin-8-yl)styrene-4-carboxylic acid] |  |  |  |  |  |  | inhibition at 1 µM (adenosine A2 receptor [1]; [8]): 94%; inhibition at 0.1 µM (adenosine A2 receptor [1]; 10^-7 M, 3H-NECA, read-out: A2 Receptor Inhibition Rate): 68%
22 | CCn1c(=O)c2c(nc(/C=C/c3ccc(C(=O)OC)cc3OC)n2C)n(CC)c1=O [Compound 20, (E)-β-(1,3-Diethyl-7-methylxanthin-8-yl) -2-methoxystyrene-4-carboxylic acid methyl ester] |  |  |  |  | 88% | 69% | 
